Results taken from patent US10028931B2, “Synergistic compositions for treating microbial infections” (UNIVERSITY OF ROCHESTER, priority 2014, dated 2018).
Values after ≈ are worked out from the molar mass of the structure shown. Values joined by “and” are separate entries in the source; they are usually repeats but may differ in a detail not shown here. Equal entries are not always repeated. Where two headings read alike, the source gives them in different places.

Key:
[1] = test system: Staphylococcus aureus strain UAMS-1; test: Antimicrobial susceptibility testing (MIC, broth microdilution); format: cell-based; conditions: S. aureus UAMS-1, Mueller Hinton broth, 37° C.
In short: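 About 1×10^5 CFU of S. aureus UAMS-1 were exposed to two-fold dilutions (0–256 μg mL−1) in Mueller Hinton broth for 18 h at 37 °C. MIC was the lowest concentration with no visible growth. MBC was determined by counting cells in wells at and above the MIC.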

RnpA = target: T1, RnpA (Staphylococcus aureus, UniProt P0A0H5); test: RnpA mRNA degradation activity assay; format: biochemical; conditions: RnpA mRNA degradation, gel densitometry; read-out: RnpA IC50
T1 sequence (P0A0H5 1-117): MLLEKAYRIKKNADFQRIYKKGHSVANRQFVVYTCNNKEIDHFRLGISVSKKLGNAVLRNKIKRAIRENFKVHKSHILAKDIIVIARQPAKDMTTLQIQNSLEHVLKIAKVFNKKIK
In short: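 Total S. aureus RNA (1 μg) or in vitro transcribed spa mRNA (1 pmol) was incubated with 20 pmol RnpA plus compound for 15–30 min at 37° C in 50 mM Tris-HCl pH 8.0, 2 mM NaCl, 2 mM MgCl2. RNA was resolved on denaturing formaldehyde-agarose gels and quantified by densitometry. Percent inhibition is relative to RNA-alone and RnpA+DMSO controls.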

[2] = target: T2, S. aureus RNase P (RnpA+rnpB) (Staphylococcus aureus, UniProt P0A0H5); test: RNase P activity assay (precursor tRNA processing); format: biochemical
T2 sequence (P0A0H5 1-117): T1 sequence (P0A0H5 1-117)
In short: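 Reconstituted RnpA+rnpB (1.25 pmol) processed 10 pmol heat-denatured ptRNATyr for 15 min at 37 °C in low-salt (5 mM MgCl2) or high-salt (100 mM MgCl2, 800 mM NH4Cl) Tris pH 8.0 buffer with inhibitor or DMSO. Mature tRNATyr quantified by urea-PAGE densitometry, expressed as % of DMSO control.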

S. aureus strain UAMS-1 = test: Fractional Inhibitory Concentration testing with mupirocin; format: cell-based; conditions: combined with mupirocin, S. aureus UAMS-1, Mueller Hinton broth, 18 hours; synergistic FIC≤0.5
Procedure: The RNase P inhibitors described herein were tested for Fractional Inhibitory Concentration (FIC) in the presence of mupirocin. FIC testing was performed to determine the combined effects of mupirocin and the RnpA inhibitors as described herein. Individual wells of a 96-well microtiter plate were inoculated with 1×10^5 CFU of S. aureus strain UAMS-1 in a Mueller Hinton broth. Each row of the plate contained increasing concentrations of RNPA1000 or RNPA2000 (two-fold increments; 0, 0.004, 0.008, 0.016, 0.03, 0.06, 0.125, 0.25, 0.5, 1, 2, or 4×MIC), whereas each column contained increasing concentrations of the indicated antibiotic (two-fold increments; 0, 0.06, 0.125, 0.25, 0.5, 1, 2, or 4×MIC). Plates were incubated for 18 hours at 37° C., and growth was detected by the unaided eye. The FIC was determined using the following formula: (MIC of Drug A in Combination/MIC of Drug A Alone)+(MIC of Drug B in Combination/MIC of Drug B Alone)=FIC. A synergistic interaction was defined as an FIC value≤0.5, no interaction as an FIC of 0.5-4, or an antagonistic interaction FIC>4.

[3] = test system: RNase P-mediated tRNA processing; test: Precursor tRNA processing within bacterial cells (FIG. 1, Panel B); format: cell-based
Excerpt: Mupirocin is a generically available antibiotic that inhibits isoleucyl tRNA synthetase in bacterial cells. The enzyme charges tRNA molecules, allowing them to participate in protein translation. RnpA is an enzyme, which together with the ribozyme, rnpB, forms RNase P riboprotein complex that prepares precursor tRNA molecules for charging (it works upstream of tRNA synthetase in the tRNA processing pathway).

Staphylococcus aureus = test: Antimicrobial activity of ointment / petroleum jelly suspensions (FIG. 2, Panel A); format: cell-based; conditions: subinhibitory concentration in petroleum jelly, S. aureus
Excerpt: The addition of an RnpA inhibitor, such as RNPA2000, to mupirocin ointment (Teva Pharmaceuticals USA (North Wales, Pa.)) improved the antimicrobial efficacy of the ointment and is also effective against mupirocin resistant S. aureus. […] See FIG. 2, Panel A, upper left picture. […] See FIG. 2, Panel A, upper right picture.

Structure (SMILES): CC(C)c1ccc(OCC(=O)NNC(=S)NC(=O)c2ccco2)cc1 [RNPA2000]
- MIC ([1]; 18 hours, listed as MC-220000): 8 µg/mL (≈ 22.1 µM)
- MIC ([1]; Staphylococcus aureus, UAMS1, 18 h, read-out: MIC): 16 µg/mL (≈ 44.3 µM)
- IC50 (RnpA): 275 µM and 180 µM
- precursor tRNA processing in vitro ([2]; FIG. 1, Panel A): inhibits precursor tRNA processing
- IC50 ([2]; ptRNATyr processing, gel densitometry, read-out: RNase P IC50): 140 µM and 300 µM
- FIC with Mupirocin (S. aureus strain UAMS-1): 0.44
- precursor tRNA processing within bacterial cells [3]: inhibits precursor tRNA processing
- antimicrobial properties in petroleum jelly (Staphylococcus aureus): no antimicrobial properties
